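Method: 48-hour compound exposure of cells in 96-well plates, five concentrations, linear interpolation of endpoints. At the GI50, growth is halved.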 Calls of active or inactive are those of the source. No stated cut-off is given here; in the data, active = GI50 up to about 1.1 µM and inactive = higher.

Test systems include A549; CCRF-CEM; HCT-116; HL-60; HT-29; IGROV-1; K562; MOLT-4; NCI-H23; OVCAR-8; SK-MEL-28; SK-MEL-2; SK-MEL-5; SW-620; U-251; UACC-257; UACC-62; ACHN; SR.
Holding throughout (experiment): NCI anticancer screen, dose series, 48 h

Take `Nc1nc(Cl)nc2c1ncn2C1CC(O)C(CO)O1` (stereo unspecified): the GI50 in the assay on A549 was 4.26 µM (inactive); in the assay on CCRF-CEM, 0.0713 µM (active); in the assay with HCT-116, 4.04 µM (inactive); in the assay with HL-60 it was 0.0601 µM (active); in the assay on HT-29 it was 19.3 µM (inactive); in the assay with IGROV-1, 81.8 µM (inactive). The GI50 with K562 is 13.4 µM (inactive); in the assay with MOLT-4 it was 0.15 µM (active); with NCI-H23 it was 0.592 µM (active); in the assay on OVCAR-8 it was 0.097 µM (active); in the assay on SK-MEL-28, 43.3 µM (inactive); with SK-MEL-2, > 100 µM (inactive). In addition, the GI50 was 5.12 µM (inactive) with SK-MEL-5; 23 µM (inactive) with SW-620; 10.4 µM (inactive) with U-251; 1.76 µM (inactive) in the assay with UACC-257; 0.463 µM (active) with UACC-62.

For `COC(=O)C(Cc1ccc2c(c1)OCO2)(NC(=O)c1ccccc1)P(=O)(OC)OC` (stereo unspecified), the GI50 with A549, with ACHN, with CCRF-CEM, in the assay on HCT-116, in the assay on HL-60 and with HT-29 was > 100 µM (inactive) each time. Moreover, the GI50 in the assay with IGROV-1, in the assay with K562, in the assay with MOLT-4, with NCI-H23, in the assay with OVCAR-8 and with SK-MEL-28 was > 100 µM (inactive) throughout. In addition, the GI50 in the assay with SK-MEL-2 is 63.5 µM (inactive); in the assay with SK-MEL-5 it was > 100 µM (inactive); in the assay with SR, > 100 µM (inactive); in the assay on SW-620 it was > 100 µM (inactive); in the assay on U-251, > 100 µM (inactive); with UACC-257, > 100 µM (inactive). In the assay with UACC-62, the GI50 was > 100 µM (inactive).

On to `O=Cc1ccccc1CCn1c(=O)c2cc3c(=O)n(CCc4ccccc4C=O)c(=O)c3cc2c1=O`, for which the GI50 with A549, in the assay with ACHN, in the assay with CCRF-CEM, in the assay on HCT-116, in the assay with HL-60 and in the assay on HT-29 was > 100 µM (inactive) throughout. Besides, the GI50 with IGROV-1, in the assay with K562, in the assay with MOLT-4, in the assay on NCI-H23, in the assay with OVCAR-8 and in the assay with SK-MEL-28 was > 100 µM (inactive) throughout. Further, the GI50 with SK-MEL-2, with SK-MEL-5, in the assay on SW-620, in the assay with U-251, in the assay with UACC-257 and with UACC-62 was > 100 µM (inactive) each time.

Regarding `C=C1C(=O)O[C@@H]2[C@H](O)[C@@H](C)[C@@H]3C=CC(=O)[C@@]3(C)[C@@H](OC(=O)/C(C)=C/C)[C@H]12`, the GI50 with A549 was 1.98 µM (inactive); in the assay with CCRF-CEM, 0.254 µM (active); in the assay on HCT-116, 0.3 µM (active); with HL-60, 0.355 µM (active); with HT-29, 0.745 µM (active); with IGROV-1, 0.459 µM (active). The GI50 in the assay with K562 was 0.483 µM (active); in the assay with MOLT-4, 0.344 µM (active); with NCI-H23 it was 0.845 µM (active); in the assay with OVCAR-8, 0.723 µM (active); in the assay with SK-MEL-28, 0.344 µM (active); with SK-MEL-2, 0.557 µM (active). The GI50 is 1.18 µM (inactive) in the assay with SK-MEL-5; 0.483 µM (active) in the assay on SW-620; 0.733 µM (active) with U-251; 0.718 µM (active) with UACC-257; 0.342 µM (active) in the assay on UACC-62.

For the compound `CC(C)(C)c1ccc2c(c1)OP1(Oc3c(Cl)cc(Cl)c4cccnc34)(O2)Oc2ccc(C(C)(C)C)cc2O1`, the GI50 was 6 µM (inactive) with A549; 3.12 µM (inactive) with CCRF-CEM; 5.22 µM (inactive) in the assay on HCT-116; 2.65 µM (inactive) in the assay with HL-60; 5.2 µM (inactive) in the assay on HT-29; 8.55 µM (inactive) in the assay on IGROV-1. Moreover, the GI50 is 3.94 µM (inactive) in the assay on K562; 2.81 µM (inactive) in the assay with MOLT-4; 6.38 µM (inactive) in the assay on NCI-H23; 5.31 µM (inactive) in the assay with OVCAR-8; 11.3 µM (inactive) in the assay with SK-MEL-28; 10.2 µM (inactive) in the assay on SK-MEL-2. In addition, the GI50 was 8.51 µM (inactive) in the assay with SK-MEL-5; 6.43 µM (inactive) with SW-620; 4.63 µM (inactive) in the assay on U-251; 4.03 µM (inactive) in the assay with UACC-257; 5.37 µM (inactive) in the assay on UACC-62.

`COc1cc2c(cc1O)N=C[C@@H]1CC[C@@H](O)N1C2=O.COc1cc2c(cc1O)N=C[C@@H]1CC[C@H](O)N1C2=O`: the GI50 in the assay on A549 was 5.6 µM (inactive); with CCRF-CEM, 0.369 µM (active); in the assay with HCT-116, 1.32 µM (inactive); in the assay on HL-60 it was 0.897 µM (active); with HT-29 it was 2.17 µM (inactive); in the assay with IGROV-1, 1.83 µM (inactive). Also, the GI50 in the assay on K562 was 0.849 µM (active); in the assay with MOLT-4, 0.615 µM (active); with NCI-H23, 0.916 µM (active); in the assay on OVCAR-8 it was 1.05 µM (active); in the assay on SK-MEL-28, 0.977 µM (active); with SK-MEL-2, 0.433 µM (active). The GI50 with SK-MEL-5 is 0.583 µM (active); with SW-620 it was 0.652 µM (active); in the assay on U-251, 0.635 µM (active); with UACC-257, 1.6 µM (inactive); in the assay with UACC-62 it was 0.627 µM (active).

In the case of `O=S(=O)(N/N=C/c1ccc(Cl)cc1Cl)c1ccccc1`, the GI50 with A549 was > 100 µM (inactive); in the assay with ACHN, > 100 µM (inactive); in the assay on CCRF-CEM, 38.5 µM (inactive); in the assay with HCT-116 it was 49 µM (inactive); in the assay with HL-60 it was 19.5 µM (inactive); in the assay with HT-29, 80.2 µM (inactive). For the same compound, the GI50 in the assay with IGROV-1 is > 100 µM (inactive); in the assay on K562, 59 µM (inactive); in the assay on MOLT-4, 34.7 µM (inactive); with NCI-H23 it was 69.7 µM (inactive); in the assay on OVCAR-8 it was 71.4 µM (inactive); in the assay on SK-MEL-28 it was 67.8 µM (inactive). The GI50 is > 100 µM (inactive) in the assay on SK-MEL-2; > 100 µM (inactive) with SK-MEL-5; 57 µM (inactive) with SR; 78.9 µM (inactive) in the assay on SW-620; 91.2 µM (inactive) in the assay on U-251; > 100 µM (inactive) in the assay with UACC-257. In the assay with UACC-62, the GI50 was > 100 µM (inactive).

Take `C/C(CC(=O)Nc1ccccc1)=N\NC(N)=S`: the GI50 in the assay on A549, in the assay with CCRF-CEM, in the assay on HCT-116, with HL-60, in the assay with HT-29 and with IGROV-1 was > 100 µM (inactive) each time. For the same compound, the GI50 with K562, with MOLT-4, in the assay on NCI-H23, with OVCAR-8, in the assay on SK-MEL-28 and in the assay on SK-MEL-2 was > 100 µM (inactive) in each case. The GI50 in the assay on SK-MEL-5, with SW-620, in the assay on U-251, in the assay with UACC-257 and in the assay on UACC-62 was > 100 µM (inactive) in each case.

On to `Cc1cc(O)nc(NN2C(Cl)C(=O)C2c2cccc(Cl)c2)n1` (stereo unspecified), for which the GI50 was 47.8 µM (inactive) with A549; 30 µM (inactive) with ACHN; 6.49 µM (inactive) with CCRF-CEM; > 10 µM (inactive) in the assay with HCT-116; 16 µM (inactive) in the assay on HL-60; 23.4 µM (inactive) with HT-29. For the same compound, the GI50 in the assay on IGROV-1 is 14 µM (inactive); in the assay with K562, 17.6 µM (inactive); in the assay on MOLT-4, 13.8 µM (inactive); in the assay on NCI-H23, 20.1 µM (inactive); in the assay with OVCAR-8, 31.1 µM (inactive); in the assay on SK-MEL-28 it was 22.4 µM (inactive). Also, the GI50 in the assay with SK-MEL-2 was 16.7 µM (inactive); with SK-MEL-5, 18.4 µM (inactive); in the assay on SR, 16 µM (inactive); with SW-620, 38 µM (inactive); in the assay on U-251, 30.5 µM (inactive); in the assay on UACC-257, 32.8 µM (inactive). For the same compound, the GI50 in the assay on UACC-62 was 23.1 µM (inactive).

Take `CCCCCCCCCCCCSC(=S)c1c(C)[nH]n(CCCCCCCCCCCC)c1=O`: the GI50 is 40.5 µM (inactive) in the assay with A549; 55.2 µM (inactive) in the assay with ACHN; 48.4 µM (inactive) in the assay with CCRF-CEM; 43.6 µM (inactive) in the assay on HCT-116; 66.7 µM (inactive) in the assay with HL-60; 74.1 µM (inactive) with HT-29. Besides, the GI50 in the assay on IGROV-1 was > 100 µM (inactive); in the assay on K562 it was > 100 µM (inactive); in the assay with MOLT-4, > 100 µM (inactive); in the assay with NCI-H23, > 100 µM (inactive); in the assay on OVCAR-8, 91.2 µM (inactive); in the assay with SK-MEL-28 it was > 100 µM (inactive). For the same compound, the GI50 in the assay with SK-MEL-2 was 78.2 µM (inactive); in the assay with SK-MEL-5, > 100 µM (inactive); with SR, > 100 µM (inactive); in the assay with SW-620 it was 77.6 µM (inactive); with U-251, > 100 µM (inactive); in the assay with UACC-257, > 100 µM (inactive). Moreover, in the assay with UACC-62, the GI50 is > 100 µM (inactive).

For `COc1cc(CCc2ccncc2)cc(OC)c1OC`, the GI50 in the assay on A549, in the assay with ACHN, in the assay with CCRF-CEM, with HCT-116, in the assay on HL-60 and in the assay on HT-29 was > 100 µM (inactive) in each case. The GI50 with IGROV-1, with K562, in the assay with MOLT-4, in the assay with NCI-H23, in the assay with OVCAR-8 and in the assay on SK-MEL-28 was > 100 µM (inactive) throughout. Further, the GI50 with SK-MEL-5, in the assay with SW-620, with U-251, with UACC-257 and with UACC-62 was > 100 µM (inactive) each time.
